Laboratory results published in the supplement of paper PMC10307832.

Key:
Test in all cases: relative viability (nuclei count vs DMSO), 5 days (fraction); higher = more cells survive
[1] = compound: O=C(Nc1cc(C(F)(F)F)cc(C(F)(F)F)c1)c1cc(Cl)ccc1O [IMD-0354] + Nc1nc2[nH]cc(CCc3ccc(C(=O)N[C@@H](CCC(=O)O)C(=O)O)cc3)c2c(=O)[nH]1 [Pemetrexed] (partner 0.2 µM)
Procedure, shortened: (§1)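 A single step with final 0.05% Triton X-100, 1% formaldehyde and 1 ug/ml Hoechst fixed the cells and stained nuclei 5 days after treatment. Lung cancer cell lines in 1536-well plates had been treated by pin tool the day after seeding with one drug alone or a fixed anchor-drug dose plus five library-drug doses (not always all listed) in √10 steps, and nuclei were counted on 4× images. Relative viability is the ratio of nuclei in treated wells to nuclei in vehicle wells, taken as the median of duplicate plates.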

[2] = compound: Cc1cnc(CNC(=O)c2c(=O)c3ccc(N4CCCN(C)CC4)nc3n3c2sc2ccccc23)cn1 [CX-5461] + COc1cccc2cc(-c3nc([C@H]4CC[C@H](C(=O)O)CC4)n4ncnc(N)c34)[nH]c12 [OSI-027] (partner 0.5 µM)
Procedure, shortened: as §1

[3] = compound: O=C(Nc1cc(C(F)(F)F)cc(C(F)(F)F)c1)c1cc(Cl)ccc1O [IMD-0354]
Procedure, shortened: (§2)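 On vehicle-anchored 1536-well plates, lung cancer cell lines held overnight at 37 °C were pinned with five library-drug doses (not always all listed) spaced by √10. With no medium change over 5 days, they were then fixed, permeabilised and Hoechst-stained in one step and imaged at 4×. MetaXpress counted nuclei, and viability is the median across plates of treated-well over vehicle-well nuclei. Acceptance needed control CV below 25% and at least one doubling.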

[4] = compound: Cc1cnc(CNC(=O)c2c(=O)c3ccc(N4CCCN(C)CC4)nc3n3c2sc2ccccc23)cn1 [CX-5461]
Procedure, shortened: as §2

NCI-H2170
relative viability ([1]; first compound 0.04 µM): 0.275
relative viability ([1]; first compound 0.1265 µM): 0.302
relative viability ([1]; first compound 0.4 µM): 0.235
relative viability ([1]; first compound 1.265 µM): 0.286
relative viability ([1]; first compound 4 µM): 0.191
relative viability ([2]; first compound 0.01 µM): 0.812
relative viability ([2]; first compound 0.03162 µM): 0.666
relative viability ([2]; first compound 0.1 µM): 0.754
relative viability ([2]; first compound 0.3162 µM): 0.707
relative viability ([2]; first compound 1 µM): 0.747
relative viability ([3]; 0.04 µM): 0.956
relative viability ([3]; 0.1265 µM): 1.02
relative viability ([3]; 0.4 µM): 0.777
relative viability ([3]; 1.265 µM): 0.806
relative viability ([3]; 4 µM): 0.226
relative viability ([4]; 0.01 µM): 1.03
relative viability ([4]; 0.03162 µM): 1.02
relative viability ([4]; 0.1 µM): 1.08
relative viability ([4]; 0.3162 µM): 1
relative viability ([4]; 1 µM): 1.02

NCI-H2228
relative viability ([1]; first compound 0.04 µM): 0.379
relative viability ([1]; first compound 0.1265 µM): 0.37
relative viability ([1]; first compound 0.4 µM): 0.292
relative viability ([1]; first compound 1.265 µM): 0.22
relative viability ([1]; first compound 4 µM): 0.125
relative viability ([2]; first compound 0.01 µM): 0.629
relative viability ([2]; first compound 0.03162 µM): 0.428
relative viability ([2]; first compound 0.1 µM): 0.361
relative viability ([2]; first compound 0.3162 µM): 0.272
relative viability ([2]; first compound 1 µM): 0.13
relative viability ([3]; 0.04 µM): 1.07
relative viability ([3]; 0.1265 µM): 0.888
relative viability ([3]; 0.4 µM): 0.721
relative viability ([3]; 1.265 µM): 0.266
relative viability ([3]; 4 µM): 0.294
relative viability ([4]; 0.01 µM): 1.03
relative viability ([4]; 0.03162 µM): 1.01
relative viability ([4]; 0.1 µM): 0.948
relative viability ([4]; 0.3162 µM): 0.855
relative viability ([4]; 1 µM): 0.205

NCI-H2342
relative viability ([1]; first compound 0.04 µM): 0.814
relative viability ([1]; first compound 0.1265 µM): 0.822
relative viability ([1]; first compound 0.4 µM): 0.585
relative viability ([1]; first compound 1.265 µM): 0.508
relative viability ([1]; first compound 4 µM): 0.408
relative viability ([2]; first compound 0.01 µM): 0.633
relative viability ([2]; first compound 0.03162 µM): 0.599
relative viability ([2]; first compound 0.1 µM): 0.584
relative viability ([2]; first compound 0.3162 µM): 0.642
relative viability ([2]; first compound 1 µM): 0.598
relative viability ([3]; 0.04 µM): 1.03
relative viability ([3]; 0.1265 µM): 1.05
relative viability ([3]; 0.4 µM): 0.764
relative viability ([3]; 1.265 µM): 0.633
relative viability ([3]; 4 µM): 0.476
relative viability ([4]; 0.01 µM): 0.997
relative viability ([4]; 0.03162 µM): 1
relative viability ([4]; 0.1 µM): 0.834
relative viability ([4]; 0.3162 µM): 1.04
relative viability ([4]; 1 µM): 0.889

NCI-H2347
relative viability ([1]; first compound 0.04 µM): 0.387
relative viability ([1]; first compound 0.1265 µM): 0.435
relative viability ([1]; first compound 0.4 µM): 0.373
relative viability ([1]; first compound 1.265 µM): 0.365
relative viability ([1]; first compound 4 µM): 0.27
relative viability ([2]; first compound 0.01 µM): 0.326
relative viability ([2]; first compound 0.03162 µM): 0.395
relative viability ([2]; first compound 0.1 µM): 0.411
relative viability ([2]; first compound 0.3162 µM): 0.553
relative viability ([2]; first compound 1 µM): 0.395
relative viability ([3]; 0.04 µM): 1.1
relative viability ([3]; 0.1265 µM): 1.02
relative viability ([3]; 0.4 µM): 0.738
relative viability ([3]; 1.265 µM): 0.511
relative viability ([3]; 4 µM): 0.4
relative viability ([4]; 0.01 µM): 1.02
relative viability ([4]; 0.03162 µM): 1.04
relative viability ([4]; 0.1 µM): 1.04
relative viability ([4]; 0.3162 µM): 0.937
relative viability ([4]; 1 µM): 0.908

NCI-H2405
relative viability ([1]; first compound 0.04 µM): 1.16
relative viability ([1]; first compound 0.1265 µM): 0.965
relative viability ([1]; first compound 0.4 µM): 0.49
relative viability ([1]; first compound 1.265 µM): 0.271
relative viability ([1]; first compound 4 µM): 0.277
relative viability ([2]; first compound 0.01 µM): 0.607
relative viability ([2]; first compound 0.03162 µM): 0.639
relative viability ([2]; first compound 0.1 µM): 0.717
relative viability ([2]; first compound 0.3162 µM): 0.632
relative viability ([2]; first compound 1 µM): 0.616
relative viability ([3]; 0.04 µM): 1.08
relative viability ([3]; 0.1265 µM): 1.09
relative viability ([3]; 0.4 µM): 0.7
relative viability ([3]; 1.265 µM): 0.278
relative viability ([3]; 4 µM): 0.332
relative viability ([4]; 0.01 µM): 1.03
relative viability ([4]; 0.03162 µM): 0.995
relative viability ([4]; 0.1 µM): 1.01
relative viability ([4]; 0.3162 µM): 0.897
relative viability ([4]; 1 µM): 0.864

NCI-H3122
relative viability ([1]; first compound 0.04 µM): 0.196
relative viability ([1]; first compound 0.1265 µM): 0.211
relative viability ([1]; first compound 0.4 µM): 0.18
relative viability ([1]; first compound 1.265 µM): 0.281
relative viability ([1]; first compound 4 µM): 0.15
relative viability ([2]; first compound 0.01 µM): 1.07
relative viability ([2]; first compound 0.03162 µM): 0.882
relative viability ([2]; first compound 0.1 µM): 0.938
relative viability ([2]; first compound 0.3162 µM): 0.672
relative viability ([2]; first compound 1 µM): 0.668
relative viability ([3]; 0.04 µM): 1.12
relative viability ([3]; 0.1265 µM): 1.06
relative viability ([3]; 0.4 µM): 0.723
relative viability ([3]; 1.265 µM): 0.313
relative viability ([3]; 4 µM): 0.151
relative viability ([4]; 0.01 µM): 0.977
relative viability ([4]; 0.03162 µM): 1.02
relative viability ([4]; 0.1 µM): 0.965
relative viability ([4]; 0.3162 µM): 1.01
relative viability ([4]; 1 µM): 0.831
